# Assay results taken from patent publication EP4467141A1, “PYRAZOLO-QUINOLINES AS SELECTIVE INHIBITORS OF GENOTOXIC STRESS-INDUCED IKK/NF- KB PATHWAYS FOR CANCER THERAPY” (Max-Delbrück-Centrum für Molekulare Medizin in der …, priority 2023, dated 2024).
# System: Akt phosphorylation (S473)
# Assay: Western blot of Akt phosphorylation (S473) in U2-OS cells
# Type: cell-based
# Conditions: 1-hour pre-treatment
# Procedure: Fig.2: MW01 and MW05 are potent and selective kinase inhibitors. […] Heatmap indicates lower IC50. […] (C) Western blot analysis of NF-κB p65 phosphorylation (S536) and Akt phosphorylation (S473) following 1-hour pre-treatment with DMSO, MW01 (10 µM), MW05 (10µM), PI-103 (1 µM), NU7441 (1 µM), or MU1210 (1 µM) in unstimulated, after 90 min irradiation (IR, 20 Gy), or after 20 min TNFα (10 ng/ml) conditions in U2-OS cells. (D) mRNA expression analysis of CLK2 (top), 48 hours after transfection with siNC, CLK2 si1, or CLK2 si2. mRNA expression analysis of NFKBIA (bottom), 48 hours after transfection with siNC, CLK2 si1, orCLK2 si2. Values are normalized to unstimulated siNC expressing cells. Statistical comparison was made between experimental conditions and respective paired siNC expressing controls. ns: not significant; **, ***, ****: p<0.01, p<0.001, p<0.000. (E) Western blot analysis of U2-OS cells after transfection with siNC or CLK2 si2 unstimulated, after irradiation (IR), or after TNFα treatment. Vinculin used as loading control. (F) IC50 (nM) of all CLK isoforms for MW01 and MW05. (G) Quantification from (E) with CLK2 knockdown and p-p65 quantification (top left and top right, respectively) and CLK4 knockdown and p-p65 (bottom left and bottom right, respectively. ns: not significant; **, ***, ****: p<0.01, p<0.001, p<0.0001.
# Cells were collected by scraping and lysed in Baeuerle lysis buffer supplemented with Protease (Thermo Fisher Scientific, 78429) and Phosphatase (Thermo Fisher Scientific, 78420) inhibitors after the appropriate treatment and time point. Proteins were quantified by Bradford assay (Bio-Rad, 5000006) and 20-50 µg of extracted proteins were loaded on 4-20% Protein Gel (Bio-Rad, 4568096) and then transferred onto a PVDF membrane (Bio-Rad, 1620177) using Tris-Glycine buffer with 20% of methanol. Blocking was performed for 1h with 5% not-fat dry milk in PBS 1X. […] The membranes were analyzed by ECL (Thermo Fisher Scientific, 34580) and detected by ChemiDoc XRS+ (Bio-Rad) using ImageLab software (Bio-Rad). […]
smiles,measurement,value
"COc1ccc2cc3c(N)nn(C(=O)c4cccc(N(C)C)c4)c3nc2c1 [MW05, (3-Amino-7-methoxypyrazolo[3,4-b]quinolin-1-yl)-[3-(dimethylamino)phenyl]methanone]",reduction of p-Akt,partial reduction
"COc1ccc2c(c1OC)c(=O)n1c3ccc(O)cc3c3ccnc2c31 [MW01, 5-Hydroxy-10,11-dimethoxy-9H-benzo[c]indolo[3,2,1-ij][1,5]naphthyridin-9-one]",reduction of p-Akt,complete reduction
